# In US9750756B2, “Celecoxib compositions” (Pfizer Inc., priority 1998, dated 2017):
# Assay: Effect of food study (Example 17)
# Assay type: in vivo, human
# Conditions: healthy adult subjects, single 50 mg or 100 mg capsule doses, fasting or fed
# Protocol: An open-label randomized, single dose, four-way crossover study was employed to evaluate the dose proportionality and the effect of food on the pharmacokinetic profile of celecoxib in healthy adult subjects. Safety was assessed based on adverse events, vital signs and clinical laboratory tests. Twenty four healthy adult subjects were randomized to receive the following single doses of celecoxib: (A) a 50 mg dose capsule under fasting conditions, (B) a 50 mg dose capsule immediately following a high fat breakfast, (C) a 100 mg dose capsule under fasting conditions, and (D) a 100 mg dose capsule immediately following a high fat breakfast. The subjects received the study medication on days 1, 8, 15 and 22 in one of four treatment sequences (ADBC; BACD; CBDA; and DCAB). The specific composition of the 100 mg dose capsule is disclosed in Example 1. The specific composition of the 50 mg dose capsule is disclosed in Table 17A below:
# Blood samples were collected at −0.25 (predose), 0.5, 1, 1.5, 2, 3, 4, 6, 8, 12, 16, 24, 36 and 48 hours post dose. Analyses of the separated plasma were performed at PPD Pharmaco, Richmond, Va. Celecoxib plasma concentrations were determined using a validated high performance liquid chromatography (“HPLC”) procedure with a lower limit of detection of 10.0 ng/ml. […] All adverse events were mild in severity.
smiles,measurement,value
"Cc1ccc(-c2cc(C(F)(F)F)nn2-c2ccc(S(N)(=O)=O)cc2)cc1 [celecoxib, 4-[5-(4-methylphenyl)-3-(trifluoromethyl)-1H-pyrazol-1-yl]benzenesulfonamide]",changes in vital signs or physical examinations,no clinically significant changes
same,severity of adverse events,mild
